This data set deals with T1, Taq DNA polymerase (Thermus aquaticus, UniProt P19821).
T1 construct: a truncated version of Taq DNA polymerase (543 amino acids of the C-terminus part); made in house; host or cells: E. coli JM109 (pTTQ vector)
As to the kind of experiment: Labeled-primer extension assay. The data set is classed as biochemical. Conditions: for template-dependent incorporation: template T83, ApG3p and TpC3p together, FIG. 8 lane 2; for incorporation of complementary versus non-complementary dinucleotide: dinucleotide alone, FIG. 7 lanes 6 and 7. The method, then: The oligonucleotides that were used for this assay are detailed in Table 4 before. The reactions of labeled-primer extension included: polymerization buffer (40 mM Tricine-KOH, pH 8.0; 16 mM KCl; 5 mM MgCl2 and 4 μg BSA), 1 pmol template, 0.2 pmol of the p201 primer (labeled at its 5′ with P^32-γ-ATP using T4 polynucleotide kinase), 1 μM of the indicated dNTP's and 50 μM of the indicated di- or trinucleotide triphosphates in a total volume of 20 μl. The reactions were incubated for 5 minutes at 45° C., then 5 units of Taq DNA polymerase (see Example 3 for details) were added, followed by 20 minutes at 72° C. The reactions were terminated with 15 μl of stop solution (95% formamide, 20 mM EDTA and 0.05% bromophenol blue). Three μl were then separated on Urea-PAGE, and the radiolabeled DNA-bands were detected by phosphoimaging.

T1 sequence (P19821 290-832 limits assumed): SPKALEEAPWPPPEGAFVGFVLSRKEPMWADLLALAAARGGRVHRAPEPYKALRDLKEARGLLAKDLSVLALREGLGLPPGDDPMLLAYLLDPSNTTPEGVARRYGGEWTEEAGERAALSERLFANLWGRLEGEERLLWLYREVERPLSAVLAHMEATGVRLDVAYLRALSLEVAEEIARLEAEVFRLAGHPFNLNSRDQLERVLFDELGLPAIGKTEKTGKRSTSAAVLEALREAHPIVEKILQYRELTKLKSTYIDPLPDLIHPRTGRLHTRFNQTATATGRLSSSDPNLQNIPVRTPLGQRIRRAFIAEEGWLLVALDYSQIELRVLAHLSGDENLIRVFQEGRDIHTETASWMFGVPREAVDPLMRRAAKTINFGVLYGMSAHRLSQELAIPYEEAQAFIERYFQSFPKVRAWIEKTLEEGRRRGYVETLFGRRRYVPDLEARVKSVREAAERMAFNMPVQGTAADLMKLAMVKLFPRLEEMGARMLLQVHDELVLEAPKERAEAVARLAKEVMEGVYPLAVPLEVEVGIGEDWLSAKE

As to `Nc1nc2c(ncn2[C@H]2C[C@H](O)[C@@H](COP(=O)(O)O[C@H]3C[C@H](n4cnc5c(N)ncnc54)O[C@@H]3CO)O2)c(=O)[nH]1` [ApG3p, 2′-deoxyadenylyl(3′-5′)-2′-deoxyguanosine], the template-dependent incorporation result is recorded as “template-dependent incorporation”.
Turning to `Nc1ccn([C@H]2C[C@H](OP(=O)(O)OC[C@H]3O[C@@H](n4cnc5c(N)ncnc54)C[C@@H]3O)[C@@H](CO)O2)c(=O)n1` [CpA3p, 2′-deoxycytidylyl(3′-5′)-2′-deoxyadenosine], the “incorporation of complementary versus non-complementary dinucleotide” value (template T24) was “seems to be incorporated”. Besides, the “template-dependent incorporation onto 3′ end of labeled primer p201” value (templates T80 and T81, 50 μM dinucleotide triphosphates, FIG. 6 lanes 3-7) is given as “correct incorporation”. Also, the “efficiency of incorporation compared to the natural dNTP's” value (templates T80 and T81, FIG. 6 lanes 3-7 vs lane 2) was “lower efficiency”.
In the case of `Nc1ccn([C@H]2C[C@H](OP(=O)(O)OC[C@H]3O[C@@H](n4ccc(N)nc4=O)C[C@@H]3O)[C@@H](CO)O2)c(=O)n1` [CpC3p, 2′-deoxycytidylyl(3′-5′)-2′-deoxycytidine], where the note is “template T24”, the “incorporation of complementary versus non-complementary dinucleotide” value is “Only the complementary dinucleotide (CpA3p) seems to be incorporated”.
Take `Cc1cn([C@H]2C[C@H](OP(=O)(O)OC[C@H]3O[C@@H](n4ccc(N)nc4=O)C[C@@H]3O)[C@@H](CO)O2)c(=O)[nH]c1=O` [TpC3p, thymidylyl(3′-5′)-2′-deoxycytidine]: the template-dependent incorporation result is given as “template-dependent incorporation”.
As for “thymidylyl-3′-5′-thymidylyl-3′-5′-thymidine (DNA TTT; DNA, phosphodiester; triphosphate form of the trinucleotide, triphosphate end not given here, further chemistry not fully specified) [TpTpT3p]”, where the note is “template T24, FIG. 7 lanes 4 and 5”, the “template-dependent incorporation in a mix with dCTP and dATP” value is “utilized”.
